The subject of test [1] is R. microplus kinin receptor. Put plainly: High-throughput dual-addition calcium fluorescence screen on BMLK3 cells. The test is classed as cell-based, Rhipicephalus microplus. Conditions: for antagonist Io (%): compound 2 μmol L^−1, 5 min, then FFFSWGa 500 nmol L^−1; for agonist NPA (%): compound 2 μmol L^−1, first addition, relative to FFFSWGa 500 nmol L^−1.
For test [2], the target named is recombinant tick kinin receptor (BMLK3) (Rhipicephalus microplus, UniProt Q9NHA4). Kind of test: Dose-response dual-addition calcium fluorescence assay on BMLK3 cells. The test is classed as cell-based. Particulars: for validation mark in dose-response assay: Table 3; for EC50: first addition, 20 concentrations 28 nM-25 μM, read-out: BMLK3 EC50; for IC50: second addition Rhimi-K-1 1 μmol L^−1, read-out: BMLK3 IC50.
recombinant tick kinin receptor (BMLK3), sequence (Q9NHA4 entry or part of it): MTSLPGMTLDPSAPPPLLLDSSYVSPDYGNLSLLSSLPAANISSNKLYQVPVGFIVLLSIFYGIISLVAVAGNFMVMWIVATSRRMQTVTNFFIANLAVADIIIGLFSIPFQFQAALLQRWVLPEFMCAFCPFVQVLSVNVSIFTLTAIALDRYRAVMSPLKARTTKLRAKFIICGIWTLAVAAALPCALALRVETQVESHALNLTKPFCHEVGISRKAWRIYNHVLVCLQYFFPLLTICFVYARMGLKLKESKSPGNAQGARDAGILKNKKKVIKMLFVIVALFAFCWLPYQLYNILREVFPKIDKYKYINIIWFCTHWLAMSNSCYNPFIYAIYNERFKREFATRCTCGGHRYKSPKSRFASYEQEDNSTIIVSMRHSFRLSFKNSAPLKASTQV

The subject of test [3] is vector-only (V/O) CHO-K1 cells. Kind of test: Dose-response dual-addition calcium fluorescence assay on vector-only cells. The test is classed as cell-based. Particulars: V/O cells; for EC50: first addition; for IC50: second addition Rhimi-K-1 1 μmol L^−1, read-out: V/O antagonist IC50.

The record followed here is patent US20240251785A1, “SMALL MOLECULE ANTAGONISTS AND AGONISTS OF ARTHROPOD KININ RECEPTORS FOR PEST CONTROL” (The Texas A&M University System, priority 2021, published 2024).

As a reminder, the EC50 is the concentration needed to bring the measured effect to its halfway point. Regarding `C=C(NNC(=S)Nc1c(C)cccc1C)c1cc2ccccc2o1` [SACC-0037245], the “antagonist Io (%)” value in test [1] came out at 63%. Further, in test [2], the “validation mark in dose-response assay” value is recorded as “*** (molecules which are either off-target or of low activity (<25 μM))”, the concentration for a half-maximal effect (EC50) stood at 5.78 µM and the IC50 was found to be 4.43 µM. In test [3], the 50% effective concentration (EC50) was under 0.0285 µM and the IC50 was 0.605 µM.
Turning to `Cc1cccc(NC(=O)c2c(F)c(F)c(F)c(F)c2F)n1` [SACC-0037442], the “antagonist Io (%)” value in test [1] is listed as 52%. In test [2], the “validation mark in dose-response assay” value is recorded as “*** (molecules which are either off-target or of low activity (<25 μM))”, the EC50 stood at 7.77 µM and the IC50 is under 0.0285 µM. Moreover, in test [3], the EC50 is over 25 µM and the IC50 was determined as 7.18 µM.
For `Cc1nc(C)c(C(=O)N(Cc2ccco2)C2CCN(c3ccc4c(c3)OCO4)CC2)s1` [SACC-0040154], the “agonist NPA (%)” value in test [1] is on record as 81%. Besides, in test [2], the “validation mark in dose-response assay” value is on record as “*** (molecules which are either off-target or of low activity (<25 μM))”, the EC50 was 13.2 µM and the IC50 was 3.09 µM. In test [3], the EC50 is 0.12 µM and the IC50 turned out to be 1.24 µM.
In the case of `CCCC1=CC(=C2NNC(C)=C2c2ccc(C(=O)OCC)o2)C(O)=CC1=O` [SACC-0048694], the “antagonist Io (%)” value in test [1] is 65%. Besides, in test [2], the “validation mark in dose-response assay” value is on record as “*** (molecules which are either off-target or of low activity (<25 μM))”, the EC50 is 0.281 µM and the IC50 is over 25 µM. Besides, in test [3], the EC50 came out at 6.87 µM and the IC50 came to 17.5 µM.
Consider `CCCc1cc(-c2cc(O)n3nc(C)c(CC)c3n2)no1` [SACC-0048722], for which the “antagonist Io (%)” value in test [1] was found to be 56%. For the same molecule, in test [2], the “validation mark in dose-response assay” value is listed as “*** (molecules which are either off-target or of low activity (<25 μM))”, the EC50 stood at 4.17 µM and the IC50 was over 25 µM. Also, in test [3], the half-maximal effective concentration (EC50) was under 0.0285 µM and the IC50 came out at 4.32 µM.
Take `CCN(CC)c1ccc2cc(C(N)=O)c(=NNC(=O)c3cccs3)oc2c1` [SACC-0052578]: the “agonist NPA (%)” value in test [1] was found to be 166%. Moreover, in test [2], the “validation mark in dose-response assay” value is recorded as “*** (molecules which are either off-target or of low activity (<25 μM))”, the 50% effective concentration (EC50) was over 25 µM and the IC50 is over 25 µM. Also, in test [3], the EC50 was over 25 µM and the IC50 was over 25 µM.
Consider `CCNc1nc(NCc2ccco2)c2ccccc2n1` [SACC-0055093], for which the “agonist NPA (%)” value in test [1] stood at 128%. Also, in test [2], the “validation mark in dose-response assay” value is recorded as “*** (molecules which are either off-target or of low activity (<25 μM))”, the concentration for a half-maximal effect (EC50) was found to be 0.898 µM and the IC50 worked out at 10.3 µM. Moreover, in test [3], the half-maximal effective concentration (EC50) was found to be 0.683 µM and the IC50 was 0.376 µM.
`CCOC(=O)c1[nH]c2ccc(Br)cc2c1N=C(C)N(C)C` [SACC-0055903]: the “agonist NPA (%)” value in test [1] was found to be 75%. Also, in test [2], the “validation mark in dose-response assay” value is on record as “*** (molecules which are either off-target or of low activity (<25 μM))”, the EC50 was 6.76 µM and the IC50 was determined as 6.02 µM. In test [3], the EC50 was found to be 3.68 µM and the IC50 came to 2.63 µM.
Turning to `CCOc1ccc(NC(=N)/N=c2/nc(C(F)(F)F)cc(C)[nH]2)cc1` [SACC-0060049], the “agonist NPA (%)” value in test [1] is 104%. For the same molecule, in test [2], the “validation mark in dose-response assay” value is on record as “*** (molecules which are either off-target or of low activity (<25 μM))”, the EC50 was 4.55 µM and the IC50 was over 25 µM. Besides, in test [3], the EC50 turned out to be 1.93 µM and the IC50 was 0.243 µM.
`O=C(Nc1ccc(I)cc1)C(Cl)(Cl)Cl` [SACC-0062945]: in test [1], the “agonist NPA (%)” value is given as 61%. Further, in test [2], the “validation mark in dose-response assay” value is recorded as “*** (molecules which are either off-target or of low activity (<25 μM))”, the EC50 is under 0.0285 µM and the IC50 was 0.128 µM. For the same molecule, in test [3], the EC50 is 0.0604 µM and the IC50 turned out to be 3.84 µM.
Regarding `C=CCn1cnnc1SCC1CC1(Cl)Cl` (stereo not drawn) [SACC-0063031], in test [1], the “antagonist Io (%)” value was 80%. Moreover, in test [2], the “validation mark in dose-response assay” value is reported as “*** (molecules which are either off-target or of low activity (<25 μM))”, the EC50 came out at 0.246 µM and the IC50 came out at 0.242 µM. For the same molecule, in test [3], the EC50 was 17 µM and the IC50 worked out at 4.45 µM.
Turning to `O=C(CSC1=NCCS1)c1ccc(Cl)cc1` [SACC-0064624], in test [1], the “antagonist Io (%)” value is listed as 76%. In test [2], the “validation mark in dose-response assay” value is reported as “*** (molecules which are either off-target or of low activity (<25 μM))”, the 50% effective concentration (EC50) came out at 0.504 µM and the IC50 was 0.21 µM. In test [3], the EC50 is over 25 µM and the IC50 is over 25 µM.
Take `Cc1cc(N=CN(C)C)c2ccccc2n1` [SACC-0068485]: in test [1], the “antagonist Io (%)” value is listed as 56%. Moreover, in test [2], the “validation mark in dose-response assay” value was “*** (molecules which are either off-target or of low activity (<25 μM))”, the EC50 came to 0.743 µM and the IC50 came to 4.15 µM. In test [3], the EC50 turned out to be 3.77 µM and the IC50 turned out to be 0.549 µM.
For `CN1c2ccccc2Oc2nnc(Cl)cc21` [SACC-0075838], the “agonist NPA (%)” value in test [1] worked out at 143%. In test [2], the “validation mark in dose-response assay” value was “*** (molecules which are either off-target or of low activity (<25 μM))”, the concentration for a half-maximal effect (EC50) came to 4.37 µM and the IC50 came to 0.0845 µM. In test [3], the EC50 is over 25 µM and the IC50 is over 25 µM.
On to `COC(=O)c1cc2c(s1)Oc1cc(C(F)(F)F)ccc1C(=S)N2` [SACC-0081272], for which the “antagonist Io (%)” value in test [1] is recorded as 74%. For the same molecule, in test [2], the “validation mark in dose-response assay” value is “*** (molecules which are either off-target or of low activity (<25 μM))”, the 50% effective concentration (EC50) worked out at 1.48 µM and the IC50 is under 0.0285 µM. In test [3], the EC50 was 0.0485 µM and the IC50 is over 25 µM.
In the case of `COc1ccc(-c2nc(CN3CCN(C(=O)c4ccc5c(c4)NC(=O)[C@H](C)S5)CC3)cs2)cc1` [SACC-0088454], the “antagonist Io (%)” value in test [1] stood at 57%. For the same molecule, in test [2], the “validation mark in dose-response assay” value is “*** (molecules which are either off-target or of low activity (<25 μM))”, the 50% effective concentration (EC50) is over 25 µM and the IC50 is over 25 µM. Besides, in test [3], the concentration giving a half-maximal response (EC50) is over 25 µM and the IC50 is 14.4 µM.
In the case of `COc1ccccc1-n1nnnc1S[C@@H](C)C(=O)c1ccc2c(c1)CCN2C(C)=O` [SACC-0095062], the “agonist NPA (%)” value in test [1] worked out at 47%. Besides, in test [2], the “validation mark in dose-response assay” value is given as “*** (molecules which are either off-target or of low activity (<25 μM))”, the EC50 was over 25 µM and the IC50 was over 25 µM. Further, in test [3], the EC50 is over 25 µM and the IC50 is under 0.0285 µM.
Regarding `COc1ccccc1NC(=O)c1cc2ccccc2cc1OCc1nnnn1C1CC1` [SACC-0095102], the “agonist NPA (%)” value in test [1] is 145%. For the same molecule, in test [2], the “validation mark in dose-response assay” value is “*** (molecules which are either off-target or of low activity (<25 μM))”, the EC50 came out at 0.974 µM and the IC50 was found to be 1.88 µM. Moreover, in test [3], the EC50 was under 0.0285 µM and the IC50 was 2.21 µM.
On to `COc1ccccc1NC(=O)c1cn(CCC#N)nc1-c1ccc(C)c(C)c1` [SACC-0095111], for which the “agonist NPA (%)” value in test [1] is recorded as 71%. Moreover, in test [2], the “validation mark in dose-response assay” value was “*** (molecules which are either off-target or of low activity (<25 μM))”, the EC50 was over 25 µM and the IC50 worked out at 3.32 µM. Further, in test [3], the concentration for a half-maximal effect (EC50) was over 25 µM and the IC50 turned out to be 7.33 µM.
